Counter-ions that a name gives are not always drawn.
What was measured:
TGA of bupropion salts = type: physicochemical; details: at 400° C.
Protocol: 2-5 mg of each salt was placed in an aluminium pan and covered with its lid. DSC was run for each sample at the rate of 10 degrees C./min (for HBr salt, different rates were used to investigate for polymorphs) from 30 degrees C. to 400 degrees C. TGA was also used for each of the HBr, HCl, maleate and tosylate salts.
(§1) The salts were analyzed by DSC (at 10° C./min from 30° C. up to 400° C.) and the pH (aq. 0.5%), and the moisture content by KF were also measured. The TGA was performed on the HCl, maleate, tosylate and HBr salts.

[1] = Solubility and other physical properties, Bupropion HBr vs Bupropion HCl
[2] = Closed vial / closed glass bottle stability (40° C./75% RH) of bupropion salt APIs; type: physicochemical
[3] = moisture content by KF and pH (aq. 0.5%) of bupropion salts; type: physicochemical; details: salt as received
Protocol: The eight salts were first evaluated by HPLC, KF, pH and DSC for purity, water content, aqueous pH and possible polymorphs.
as §1

[4] = HCl from Erregierre, HBr from Chemi, hydrochloride
[5] = 10-Days, closed glass bottle 40 C./75% RH, HBr Lot# STN07491, HCl Lot# STN06973
[6] = 10 Days, closed glass bottle 40 C./75% RH, HBr Lot# STN07492, HCl Lot# STN06978
[7] = 14-Days, closed glass bottle 40° C./75% RH, HBr Lot# STN07492, HCl L# STN06973
[8] = 24 Days, closed glass bottle 40° C./75% RH, HBr Lot# STN07492, HCl L# STN06973
[9] = 24 Days, closed glass bottle 40° C./75% RH, HBr Lot# STN07492, HCl L# STN06973, hydrochloride
[10] = Initial, closed glass bottle 40 C./75% RH, HBr Lot# STN07491, HCl Lot# STN06973
[11] = Initial, closed glass bottle 40 C./75% RH, HBr Lot# STN07492, HCl Lot# STN06978
[12] = Initial, closed glass bottle 40° C./75% RH, HBr Lot# STN07492, HCl L# STN06973

CC(NC(C)(C)C)C(=O)c1cccc(Cl)c1 (stereo not drawn) [Bupropion HCl, bupropion hydrochloride]
residue (TGA) (TGA of bupropion salts): minimal residues | solubility ([1]; EtOH): 80 mg/mL | pH (aq. 0.5%) ([1]; HCl from Erregierre, HBr from Chemi): 5.90 | PS (Malvern) 10% [1, 4]: 10% 32 μm | PS (Malvern) 50% [1, 4]: 50% 102 μm | PS (Malvern) 90% [1, 4]: 90% 276 μm | moisture content KF [1, 4]: 0.01% | solubility ([1]; IPA): 10 mg/mL | solubility ([1]; Water): 270 mg/mL | % Assay [2, 5]: 96.3% | % Impurities 3-CBZ [2, 5]: 0.110% | % Impurities 20U78/dilu [2, 5]: 0.047% | % Impurities 827U76 [2, 5]: 0.045% | % Impurities 852U77 [2, 5]: 0.047% | % Impurities Total unknown [2, 5]: 0.187% | % Impurities Total (%) ([2]; 10-Days, closed glass bottle 40 C./75% RH, HBr Lot# STN07491, HCl Lot# STN06973, hydrochloride): 0.44% | % Assay [2, 6]: 96.5% | % Impurities 3-CBZ [2, 6]: 0.278% | % Impurities 20U78/dilu [2, 6]: 0.057% | % Impurities 827U76 [2, 6]: 0.141% | % Impurities 852U77 [2, 6]: 0.124% | % Impurities Total unknown [2, 6]: 0.137% | % Impurities Total (%) ([2]; 10 Days, closed glass bottle 40 C./75% RH, HBr Lot# STN07492, HCl Lot# STN06978, hydrochloride): 0.74% | % Assay [2, 7]: 98.5% | % Impurities 3-CBZ [2, 7]: 0.019% | % Impurities 20U78/dilu [2, 7]: 0.038% | % Impurities 852U77 [2, 7]: 0.010% | % Impurities Total unknown [2, 7]: 0.038% | % Impurities Total (%) ([2]; 14-Days, closed glass bottle 40° C./75% RH, HBr Lot# STN07492, HCl L# STN06973, hydrochloride): 0.11% | % Assay [2, 8]: 98.5% | % Impurities 3-CBZ [2, 8]: 0.082% | % Impurities 827U76 [2, 8]: 0.102% | % Impurities 852U77 [2, 8]: 0.023% | % Impurities Total unknown [2, 8]: 0.049% | % Impurities 20U78/dilu [2, 9]: 0.040% | % Impurities Total (%) [2, 9]: 0.30% | % Assay [2, 10]: 99.4% | % Impurities 3-CBZ [2, 10]: 0.003% | % Impurities 20U78/dilu [2, 10]: 0.040% | % Impurities Total unknown [2, 10]: 0.053% | % Impurities Total (%) ([2]; Initial, closed glass bottle 40 C./75% RH, HBr Lot# STN07491, HCl Lot# STN06973, hydrochloride): 0.10% | % Assay [2, 11]: 99.1% | % Impurities 3-CBZ [2, 11]: 0.002% | % Impurities 20U78/dilu [2, 11]: 0.04% | % Impurities Total unknown [2, 11]: 0.165% | % Impurities Total (%) ([2]; Initial, closed glass bottle 40 C./75% RH, HBr Lot# STN07492, HCl Lot# STN06978, hydrochloride): 0.21% | % Assay [2, 12]: 100.4% | % Impurities 3-CBZ [2, 12]: 0.002% | % Impurities 20U78/dilu [2, 12]: 0.043% | % Impurities 852U77 [2, 12]: 0.003% | % Impurities Total unknown [2, 12]: 0.044% | % Impurities Total (%) ([2]; Initial, closed glass bottle 40° C./75% RH, HBr Lot# STN07492, HCl L# STN06973, hydrochloride): 0.09%

Br.CC(NC(C)(C)C)C(=O)c1cccc(Cl)c1 (stereo not drawn) [bupropion hydrobromide]
moisture content KF [3]: 0.00% | pH of the aqueous solution of 0.5% [3]: 5.92
